Values quoted from earlier work in patent US10863741B2, “Herbicidal compositions” (HOMS, LLC, priority 2015, dated 2020).

System: male rats
Conditions: chronic exposure

C=C(C)[C@H]1CC=C(C)CC1 [d-limonene]
Tumor incidence: significant incidence of renal tubular tumors
